Results: article PMC6105673 (Nature Communications, 2018)
*: point of attachment. Biotin = O=C1N[C@H]2[C@H](CS[C@H]2CCCCC(=O)*)N1

Columns and labels:
HIS6-PHD2 (181–426) [1] = test: In vitro hydroxylation assay (HIS6-PHD2 treatment, then IVTT pVHL pull-down); type: biochemical; settings: unmodified biotinylated peptides, 15 μg/mL HIS6-PHD2 (181–426), 1 h room temperature, then IVTT HA-VHL30 under stringent buffer
Method: Considering that prolyl hydroxylation is indispensable for HIF-2α binding to pVHL, we next examined the notion that the A530V mutation negatively influences hydroxylation of HIF-2α via PHD2, which would attenuate HIF-2α A530V binding affinity for pVHL. We conducted an in vitro hydroxylation assay utilizing unmodified peptides (amino acids 523–542) incubated with purified HIS6-PHD2 (catalytic core, amino acids 181–426).
Fig. 5 A subset of class 1 mutations specifically disrupts PHD2-mediated hydroxylation. a, b Biotinylated HIF-2α peptides (residues 523–542) were immobilized on streptavidin- agarose beads and incubated with HIS6-PHD2 for 1 h at room temperature prior to incubation with in vitro transcribed and translated (IVTT) pVHL. Streptavidin beads were pulled down (PD) and levels of HA-tagged pVHL were visualized via immmunoblotting (IB). c HEK293a cells were co-transfected with FLAG-VHL and HA-HIF-2α constructs. FLAG was immunoprecipitated (IP) and levels of HA-tagged HIF-2α were visualized via immunoblotting (IB). * denotes uncharacterized band
The in vitro pVHL-HIF-2α hydroxylation assay was performed according to a previously published protocol. 5 μg of biotinylated HIF-2α peptide was immobilized on streptavidin-agarose beads. Subsequently, peptides were incubated with 15 μg/mL HIS6-PHD2 (181–426) in 500 μL of 40 mM HEPES pH 7.4, 80 mM KCl, 5 mM a-ketoglutarate, 2 mM ascorbic acid, 100 μM FeCl2 tetrahydrate solution at room temperature for 1 h. FeCl2 was stored under anoxic conditions to prevent oxidation. Following hydroxylation, beads were washed 5x with EBC buffer and peptides were incubated with IVTT HA-VHL30 under the stringent buffer conditions described above.

HIS6-PHD2 (181–426) [2] = test: Steady-state pull-down of purified HIS6-PHD2 with biotinylated HIF-2α peptides; type: binding
Text: To first test this hypothesis, we performed steady-state pull-down experiments with HIF-2α peptides (523–542) and purified HIS6-PHD2 (181–426). To stabilize the interaction between enzyme and substrate, it was necessary to include MnCl2 and N-oxalylglycine (NOG) in the binding buffer. Mn^2+ and NOG substitute for Fe^2+ and αKG, respectively, which stabilizes the HIF-2α-PHD2 interaction while preventing enzymatic turnover. A similar strategy was employed during co-crystallization of HIF-1α peptide with PHD2[43]. We observed that […] tested HIF-2α mutations result in decreased affinity for PHD2 (Supplementary Figure 6a). […] Next, we co-transfected HEK293a cells with 3xFLAG-HIF-2α ODD and HA-PHD2 constructs. […] The increased binding of the M535I mutant to PHD2 was not observed in this experiment. One important caveat is that the HIF-2α ODD constructs contain both the P405 and P531 sites. Thus, the residual PHD2 binding observed among HIF-2α mutants may partially be driven by the P405 site, which may mask differential PHD2 binding among the HIF-2α mutant ODD constructs.
5 μg of biotinylated HIF-2α peptide (WT or mutant) was immobilized on streptavidin agarose beads and incubated with a […] solution of purified HIS6-PHD2 (181–426) in 50 mM Tris-HCl pH 7.5, 0.005% (v/v) Tween-20 buffer supplemented with or without 1 mM MnCl2 and 1 mM NOG, for 2 h at 4 °C. Beads were washed 2x with the same buffer. Biotinylated peptide was pulled down via streptavidin agarose beads and protein was eluted by boiling beads in sample buffer. Protein levels of HIS6-PHD2 were determined by western blotting. Uncropped western blots are provided in Supplementary Figure 8.
Supplementary Figure 6. HIF-2α mutations disrupt PHD2 binding. (A) Biotinylated HIF-2α peptides (523-542, except where noted) were immobilized on streptavidin- agarose beads and incubated with purified HIS6-PHD2 (181-426) in the presence or absence of 1 mM MnCl2 and 1 mM N-oxalylglycine (NOG).
Streptavidin beads were pulled down (PD) and levels of HIS6-tagged PHD2 were visualized via immmunoblotting (IB). […]

HIS6-PHD2(181-426) = test: Biolayer interferometry of HIS6-PHD2 binding to biotinylated HIF-2α peptides (523-542); settings: BLI, 1 mM MnCl2 and 1 mM N-oxalylglycine, from mM to μM, accurate constants not possible (PHD2 aggregation)
Text: 2. The authors concluded that some of class 1 mutation affects PHD2-mediated hydroxylation of HIF-2α (Fig. 4). I think it is better to examine the interaction between HIF -2α mutants and PHD2 utilizing IP-Western and BLI. Also, negative controls (non-hydroxylated HIF-2α peptide without PHD2 treatment) should be included in Fig. 4A and 4B.
RE S PO N S E : Done. We performed binding assays with recombinant PHD2 to test the reviewer’s […]
major technical hurdle with performing binding assay with enzymes is overcoming the inherently transient nature of the interaction.
In an effort to stabilize the interaction between HIF-2α peptide and PHD2, we incorporated a technique that was used during co-crystallization of HIF-1α peptide with PHD2 (Chowdhury et al., 2009). As PHD2 normally forms a stable complex with co-factors Fe2+ and α-ketoglutarate (αK G), we formed a complex of PHD2 with Mn2+ and N-oxalylglycine (NOG), which mimic iron and αK G, […]
During BLI experiments, the addition of […]
Figure X. Biolayer interferometry studies of HIF-2α peptide binding to PHD2. […] Biotinylated peptides were coupled to streptavidin- coated biosensors and monitored for binding to PHD2 at the indicated concentrations in the presence or absence of 1 mM MnCl2 and 1 mM N-oxalylglycine. The data were analyzed based on a 1:1 binding model using the BLItz Pro software with the fitted curves shown as gray lines. […]

[3] = biological target: T1, HIS6-PHD2 (catalytic core, amino acids 181–426) (UniProt Q9GZT9 181-426); test: pull-down; biotinylated unmodified peptide on streptavidin agarose, purified HIS6-PHD2 (181–426), 50 mM Tris-HCl pH 7.5, 0.005% Tween-20 with 1 mM MnCl2 and 1 mM NOG, 2 h at 4 °C; anti-HIS blot; settings: both partners purified
T1 construct: prolyl hydroxylase domain containing enzyme 2 (PHD2, encoded by EGLN1), catalytic core, residues 181-426; plasmid pET-46 HIS6-PHD2; also called purified HIS6-PHD2 (181–426); source: E. coli BL21(DE3), purified (nickel sepharose, SEC)
T1 sequence (Q9GZT9 181-426): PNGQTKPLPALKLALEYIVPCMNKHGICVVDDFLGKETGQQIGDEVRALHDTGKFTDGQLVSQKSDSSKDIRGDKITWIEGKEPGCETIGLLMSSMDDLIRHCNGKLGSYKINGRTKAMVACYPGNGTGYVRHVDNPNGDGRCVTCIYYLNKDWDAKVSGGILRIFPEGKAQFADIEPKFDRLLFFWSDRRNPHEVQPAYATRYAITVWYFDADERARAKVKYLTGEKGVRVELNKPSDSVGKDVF

Molecule	binding to pVHL following HIS6-PHD2 treatment (immunoblot, in words) (HIS6-PHD2 (181–426) [1])	pull-down of recombinant PHD2 (in words) (HIS6-PHD2 (181–426) [2]; earlier experiments, without Mn2+/NOG stabilization)	affinity for PHD2 in steady-state pull-down (immunoblot, in words) (HIS6-PHD2 (181–426) [2]; peptides (523–542), purified HIS6-PHD2 (181–426), with 1 mM MnCl2 and 1 mM NOG, 2 h at 4 °C)	decrease of Kd for PHD2 on addition of Mn2+ and NOG (HIS6-PHD2(181-426))	binding result [3]
ELDLETLA[Hyp/P]YIPMDGEDFQL [Bio-HIF-2α(523-542;WT)]	bound robustly	failed to pull -down recombinant PHD2 protein	observed binding	roughly 1000 fold	–
Biotin-ELDLETLAPYIPMDGEDFQL-NH2 (SMILES CC[C@H](C)[C@H](NC(=O)[C@H](Cc1ccc(O)cc1)NC(=O)[C@@H]1CCCN1C(=O)[C@H](C)NC(=O)[C@H](CC(C)C)NC(=O)[C@@H](NC(=O)[C@H](CCC(=O)O)NC(=O)[C@H](CC(C)C)NC(=O)[C@H](CC(=O)O)NC(=O)[C@H](CC(C)C)NC(=O)[C@H](CCC(=O)O)NC(=O)CCCC[C@@H]1SC[C@@H]2NC(=O)N[C@@H]21)[C@@H](C)O)C(=O)N1CCC[C@H]1C(=O)N[C@@H](CCSC)C(=O)N[C@@H](CC(=O)O)C(=O)NCC(=O)N[C@@H](CCC(=O)O)C(=O)N[C@@H](CC(=O)O)C(=O)N[C@@H](Cc1ccccc1)C(=O)N[C@@H](CCC(N)=O)C(=O)N[C@@H](CC(C)C)C(N)=O, Used for the pull-down of HIS6-PHD2; source: synthetic peptide (Genscript)) [HIF-2α WT peptide (523-542), unmodified]	–	–	–	–	binds
Biotin-ELDLETLAPYIPIDGEDFQL-NH2 (peptide, UniProt Q99814 523-542, looked up, SMILES CC[C@H](C)[C@H](NC(=O)[C@@H]1CCCN1C(=O)[C@@H](NC(=O)[C@H](Cc1ccc(O)cc1)NC(=O)[C@@H]1CCCN1C(=O)[C@H](C)NC(=O)[C@H](CC(C)C)NC(=O)[C@@H](NC(=O)[C@H](CCC(=O)O)NC(=O)[C@H](CC(C)C)NC(=O)[C@H](CC(=O)O)NC(=O)[C@H](CC(C)C)NC(=O)[C@H](CCC(=O)O)NC(=O)CCCC[C@@H]1SC[C@@H]2NC(=O)N[C@@H]21)[C@@H](C)O)[C@@H](C)CC)C(=O)N[C@@H](CC(=O)O)C(=O)NCC(=O)N[C@@H](CCC(=O)O)C(=O)N[C@@H](CC(=O)O)C(=O)N[C@@H](Cc1ccccc1)C(=O)N[C@@H](CCC(N)=O)C(=O)N[C@@H](CC(C)C)C(N)=O, Used for the pull-down of HIS6-PHD2; also called M535I class 2 mutant; source: synthetic peptide (Genscript)) [HIF-2α M535I peptide (523-542), unmodified]	–	–	–	–	binds
